In patent US6960685B2 (TopoTarget UK Limited, priority 2000, dated 2005):
Blank lines part the entries; values can stand above or below the compound they belong to.

Tests used:
HDAC (HeLa cell extract) = assay: Primary assay: deacetylase activity, HeLa cell extract as source of HDAC; type: biochemical, human
Excerpt: Briefly, this assay relies on the release of radioactive acetate from a radioactively labelled histone fragment by the action of HDAC enzyme. Test compounds, which inhibit HDAC, reduce the yield of radioactive acetate. Signal (e.g., scintillation counts) measured in the presence and absence of a test compound provide an indication of that compound's ability to inhibit HDAC activity. Decreased activity indicates increased inhibition by the test compound.
The histone fragment was an N-terminal sequence from histone H4, and it was labelled with radioactively labelled acetyl groups using tritiated acetylcoenzyme A (coA) in conjunction with an enzyme which is the histone acetyltransferase domain of the transcriptional coactivator p300. 0.33 mg of peptide H4 (the N-terminal 20 amino acids of histone H4, synthesized using conventional methods) were incubated with His6-tagged p300 histone acetyltransferase domain (amino acids 1195-1673, expressed in E coli strain BLR(DE3)pLysS (Novagen, Cat. No. 69451-3) and 3H-acetyl coA (10 μL of 3.95 Ci/mmol; from Amersham) in a total volume of 300 μL of HAT buffer (50 mM TrisCl pH 8, 5% glycerol, 50 mM KCl, 0.1 mM ethylenediaminetetraacetic acid (EDTA), 1 mM dithiothreitol (DTT) and 1 mM 4-(2-aminoethyl)-benzenesulfonylfluoride (AEBSF)). The mixture was incubated at 30° C. for 45 min after which the His-p300 was removed using nickel-trinitriloacetic acid agarose (Qiagen, Cat No. 30210). The acetylated peptide was then separated from free acetyl coA by size exclusion chromatography on Sephadex G-15 (Sigma G-15-120), using distilled H2O as the mobile phase.
After purification of the radiolabelled histone fragment, it was incubated with a source of HDAC (e.g., an extract of HeLa cells (a rich source of HDAC), recombinantly produced HDAC1 or HDAC2) and any released acetate was extracted into an organic phase and quantitatively determined using scintillation counting. By including a test compound with the source of HDAC, that compound's ability to inhibit the HDAC was determined.
Two cell volumes of extraction buffer were used, and particulate material was centrifuged out (20800 g, 4° C., 10 min). The supernatant extract having deacetylase activity was aliquotted and frozen for storage.
A source of HDAC (e.g., 2 μL of crude HeLa extract, 5 μL of HDAC1 or HDAC2; in elution buffer, as above) was incubated with 3 μL of radioactively labelled peptide along with appropriate dilutions of candidate compounds (1.5 μL) in a total volume of 150 μL of buffer (20 mM Tris pH 7.4, 10% glycerol). The reaction was carried out at 37° C. for one hour, after which the reaction was stopped by adding 20 μL of 1 M HCl/0.4 M sodium acetate. Then, 750 μL of ethyl acetate was added, the samples vortexed and, after centrifugation (14000 rpm, 5 min), 600 μL from the upper phase were transferred to a vial containing 3 mL of scintillation liquid (UltimaGold, Packard, Cat. No. 6013329). Radioactivity was measured using a Tri-Carb 2100TR Liquid Scintillation Analyzer (Packard).
Percent activity (% activity) for each test compound was calculated as: % activity={(S^C−B)/(S^o−B)}×100 wherein S^c denotes signal measured in the presence of enzyme and the compound being tested, S^o denotes signal measured in the presence of enzyme but in the absence of the compound being tested, and B denotes the background signal measured in the absence of both enzyme and compound being tested.

HeLa cells = assay: Secondary assay: cell proliferation WST-1, HeLa; type: cell-based; details: Homo sapiens, 48 h, read-out: Cell Proliferation Inhibition WST-1 IC50, HeLa
Method: (§1) Compounds with HDAC inhibition activity, as determined using the primary assay, were subsequently evaluated using secondary cell-based assays. The following cell lines were used:
(§2) Cells were plated in 96-well plates at 3-10×10^3 cells/well in 100 μL of culture medium. The following day, different concentrations of candidate compounds were added and the cells incubated at 37° C. for 48 h. Subsequently, 10 μL/well of WST-1 reagent was added and the cells reincubated for 1 hour. After the incubation time, absorbance was measured.
(§3) WST-1 is a tetrazolium salt which is cleaved to formazan dye by cellular enzymes. […] The formazan dye produced is quantified by a scanning multiwell spectrophotometer by measuring the absorbance of the dye solution at 450 nm wavelength (reference wavelength 690 nm).
(§4) Percent activity (% activity) in reducing the number of viable cells was calculated for each test compound as: % activity={(S^C−B)/(S^o−B)}×100 wherein S^C denotes signal measured in the presence of the compound being tested, S^o denotes signal measured in the absence of the compound being tested, and B denotes the background signal measured in blank wells containing medium only. […] IC50 values were calculated using the software package Prism 3.0 (GraphPad Software Inc., San Diego, Calif.), setting top value at 100 and bottom value at 0.

[1] = tested on: K11 HPV E7 transformed human keratinocyte line; assay: Secondary assay: cell proliferation WST-1, K11; type: cell-based; details: K11, 48 h, read-out: Cell Proliferation Inhibition WST-1 IC50, K11
Method: as §1
K11—HPV E7 transformed human keratinocyte line provided by Pidder Jansen-Duerr, Institut für Biomedizinische Alternsforschung, Innsbruck, Austria.
as §2
as §3, with “enzymes. An expansion in the number of viable cells results in an increase in the overall activity of mitochondrial dehydrogenases in the sample.” for “enzymes.”
IC50 values were calculated using the software package Prism 3.0 (GraphPad Software Inc., San Diego, Calif.), setting top value at 100 and bottom value at 0.

JURKAT human T-cell line = assay: Secondary assay: cell proliferation WST-1, Jurkat; type: cell-based; details: 48 h, read-out: Cell Proliferation Inhibition WST-1 IC50, Jurkat
Method: as §1
JURKAT—Human T-cell line (ATCC no. TIB-152).
as §2, §3, §4

Compound: CC(C)c1ccc(NC(=O)COCC(=O)NO)cc1 [Compound 1]
HDAC Inhibition, HeLa (percent activity) (HDAC (HeLa cell extract); @ 1.0 μM): 16% @ 1.0 μM

Compound: CN(C)c1ccc(NC(=O)CSCC(=O)NO)cc1 [Compound 2]
HDAC Inhibition, HeLa (percent activity) (HDAC (HeLa cell extract); @ 500 nM): 26% @ 500 nM

Compound: CN(C)c1ccc(NC(=O)COCC(=O)NO)cc1 [Compound 4]
HDAC Inhibition, HeLa (percent activity) (HDAC (HeLa cell extract); @ 1.0 μM): 0% @ 1 μM

IC50 (HeLa cells): 87 µM
Compound: O=C(/C=C/C=C/c1ccccc1)NCCSCCC(=O)NO [Compound 5, (2E)(4E)-5-Phenylpenta-2,4-dienoic acid [2-(2-hydroxycarbamoylethylsulfanyl)ethyl]amide]
HDAC Inhibition, HeLa (percent activity) (HDAC (HeLa cell extract); @ 500 nM): 74% @ 500 nM

Compound: O=C(CCSCCNC(=O)c1ccc2ccccc2c1)NO [Compound 6, E-Naphthalene-2-carboxylic acid [2-(2-hydroxycarbamoylethylsulfanyl)ethyl]amide]
HDAC Inhibition, HeLa (percent activity) (HDAC (HeLa cell extract); @ 500 nM): 43% @ 500 nM

Compound: O=C(/C=C/C=C/c1ccccc1)NCCCOc1ccc(CC(=O)NO)cc1 [Compound 7, (2E,4E)-N-(3-{4-[2-(Hydroxyamino)-2-oxoethyl]phenoxy}propyl)-5-phenyl-2,4-pentadienamide]
HDAC Inhibition, HeLa (percent activity) (HDAC (HeLa cell extract); @ 500 nM): 7% @ 500 nM

Compound: O=C(/C=C/c1ccccc1)Nc1cccc(OCC(=O)NO)c1 [Compound 8, (E)-N-{3-[2-(Hydroxyamino)-2-oxoethoxy]phenyl}-3-phenyl-2-propenamide]
IC50 (HDAC (HeLa cell extract); unit inferred, read-out: HDAC Inhibition IC50, HeLa): 0.75 µM
IC50 (HeLa cells): 25 µM
IC50 [1]: 1.05 µM
IC50 (JURKAT human T-cell line): 12.7 µM

Compound: O=C(/C=C/C#Cc1cccc(NS(=O)(=O)c2ccccc2)c1)NO [Oxamflatin, (2E)-5-[3-[(phenylsulfonyl)amino]phenyl]-pent-2-en-4-ynohydroxamic acid, reference compound]
IC50 [1]: 4.82 µM
IC50 (JURKAT human T-cell line): 0.17 µM
